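Following 48 hours of exposure in 96-well plates, responses at five concentrations were used to interpolate endpoints linearly. TGI: total growth inhibition.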
How the values were obtained:
Assay in all cases: NCI anticancer screen, dose series, 48 h
[1] = test system: RPMI-8226 leukemia
[2] = test system: IGROV1 ovarian
[3] = test system: UACC-257 melanoma
[4] = test system: LOX IMVI melanoma
[5] = test system: HCT-15 colon
[6] = test system: NCI/ADR-RES ovarian
[7] = test system: UO-31 renal
[8] = test system: SK-MEL-2 melanoma
[9] = test system: MOLT-4 leukemia
[10] = test system: TK-10 renal
[11] = test system: CCRF-CEM leukemia
[12] = test system: UACC-62 melanoma
[13] = test system: HOP-62 NSCLC
[14] = test system: SN12C renal
[15] = test system: SF-268 CNS
[16] = test system: MALME-3M melanoma
[17] = test system: KM12 colon
[18] = test system: HT29 colon
[19] = test system: NCI-H226 lung
[20] = test system: MCF7 breast
[21] = test system: SW-620 colon
[22] = test system: MDA-N
[23] = test system: OVCAR-3 ovarian
[24] = test system: HCT-116 colon
[25] = test system: OVCAR-5 ovarian
[26] = test system: MDA-MB-435
[27] = test system: EKVX NSCLC
[28] = test system: COLO 205 colon
[29] = test system: SK-MEL-28 melanoma
[30] = test system: A549 NSCLC
[31] = test system: OVCAR-8 ovarian
[32] = test system: SF-539 CNS
[33] = test system: SF-295 CNS
[34] = test system: NCI-H23 lung
[35] = test system: U251 CNS
[36] = test system: NCI-H460 lung
[37] = test system: HS 578T breast
[38] = test system: BT-549 breast
[39] = test system: CAKI-1 renal
[40] = test system: SR leukemia
[41] = test system: MDA-MB-231 breast
[42] = test system: HL-60(TB) leukemia
[43] = test system: NCI-H522 lung
[44] = test system: OVCAR-4 ovarian
[45] = test system: SNB-75 CNS
[46] = test system: K-562 leukemia
[47] = test system: DU-145 prostate
[48] = test system: SK-OV-3 ovarian
[49] = test system: HCC-2998 colon
[50] = test system: 786-0 renal
[51] = test system: SNB-19 CNS
[52] = test system: ACHN renal
[53] = test system: M14 melanoma
[54] = test system: PC-3 prostate
[55] = test system: HOP-92 NSCLC
[56] = test system: A498 renal
[57] = test system: SK-MEL-5 melanoma
[58] = test system: RXF 393 renal

Cc1cc(C)c2ccc(N3CCNCC3)nc2n1
TGI [1]: > 100 µM | TGI [2]: > 100 µM | TGI [3]: > 100 µM | TGI [4]: > 100 µM | TGI [5]: > 100 µM | TGI [6]: > 100 µM | TGI [7]: > 100 µM | TGI [8]: > 100 µM | TGI [9]: > 100 µM | TGI [10]: > 100 µM | TGI [11]: > 100 µM | TGI [12]: > 100 µM | TGI [13]: > 100 µM | TGI [14]: > 100 µM | TGI [15]: > 100 µM | TGI [16]: > 100 µM | TGI [17]: > 100 µM | TGI [18]: > 100 µM | TGI [19]: > 100 µM | TGI [20]: > 100 µM | TGI [21]: > 100 µM | TGI [22]: > 100 µM | TGI [23]: > 100 µM | TGI [24]: > 100 µM | TGI [25]: > 100 µM | TGI [26]: > 100 µM | TGI [27]: > 100 µM | TGI [28]: > 100 µM | TGI [29]: > 100 µM | TGI [30]: > 100 µM | TGI [31]: > 100 µM | TGI [32]: > 100 µM | TGI [33]: > 100 µM | TGI [34]: > 100 µM | TGI [35]: > 100 µM | TGI [36]: > 100 µM | TGI [37]: > 100 µM | TGI [38]: > 100 µM | TGI [39]: > 100 µM | TGI [40]: > 100 µM | TGI [41]: > 100 µM | TGI [42]: > 100 µM | TGI [43]: > 100 µM | TGI [44]: > 100 µM | TGI [45]: > 100 µM | TGI [46]: > 100 µM | TGI [47]: > 100 µM | TGI [48]: > 100 µM | TGI [49]: > 100 µM | TGI [50]: > 100 µM | TGI [51]: > 100 µM | TGI [52]: > 100 µM | TGI [53]: > 100 µM | TGI [54]: > 100 µM | TGI [55]: > 100 µM

C(=Nc1ccccc1C1SCCCS1)c1ccccc1
TGI [56]: > 100 µM | TGI [1]: > 100 µM | TGI [57]: > 100 µM | TGI [2]: > 100 µM | TGI [3]: > 100 µM | TGI [4]: > 100 µM | TGI [5]: > 100 µM | TGI [6]: > 100 µM | TGI [7]: > 100 µM | TGI [8]: > 100 µM | TGI [9]: > 100 µM | TGI [10]: > 100 µM | TGI [11]: > 100 µM | TGI [12]: > 100 µM | TGI [13]: > 100 µM | TGI [58]: > 100 µM | TGI [14]: > 100 µM | TGI [15]: > 100 µM | TGI [16]: > 100 µM | TGI [17]: > 100 µM | TGI [18]: > 100 µM | TGI [19]: > 100 µM | TGI [20]: > 100 µM | TGI [21]: > 100 µM | TGI [22]: > 100 µM | TGI [23]: > 100 µM | TGI [24]: > 100 µM | TGI [25]: > 100 µM | TGI [26]: > 100 µM | TGI [27]: > 100 µM | TGI [28]: > 100 µM | TGI [29]: > 100 µM | TGI [30]: > 100 µM | TGI [31]: > 100 µM | TGI [32]: > 100 µM | TGI [33]: > 100 µM | TGI [34]: > 100 µM | TGI [35]: > 100 µM | TGI [36]: > 100 µM | TGI [37]: > 100 µM | TGI [38]: > 100 µM | TGI [39]: > 100 µM | TGI [41]: > 100 µM | TGI [42]: > 100 µM | TGI [43]: > 100 µM | TGI [44]: > 100 µM | TGI [45]: > 100 µM | TGI [46]: > 100 µM | TGI [47]: > 100 µM | TGI [48]: > 100 µM | TGI [49]: > 100 µM | TGI [50]: > 100 µM | TGI [51]: > 100 µM | TGI [52]: > 100 µM | TGI [53]: > 100 µM | TGI [54]: > 100 µM | TGI [55]: > 100 µM

O=c1cnnc2sc(=S)[nH]n12
TGI [56]: > 100 µM | TGI [1]: 29.1 µM | TGI [57]: 57.9 µM | TGI [2]: 74 µM | TGI [3]: 78.4 µM | TGI [4]: 13.9 µM | TGI [5]: 57.3 µM | TGI [6]: > 100 µM | TGI [7]: 52.1 µM | TGI [8]: > 100 µM | TGI [9]: 42.2 µM | TGI [11]: 12.1 µM | TGI [12]: > 100 µM | TGI [13]: 9.18 µM | TGI [15]: > 100 µM | TGI [16]: > 100 µM | TGI [17]: > 100 µM | TGI [18]: > 100 µM | TGI [20]: 39.8 µM | TGI [21]: 24.9 µM | TGI [22]: > 100 µM | TGI [23]: > 100 µM | TGI [24]: > 100 µM | TGI [25]: > 100 µM | TGI [26]: > 100 µM | TGI [27]: > 100 µM | TGI [28]: > 100 µM | TGI [29]: > 100 µM | TGI [30]: > 100 µM | TGI [31]: 34.3 µM | TGI [32]: > 100 µM | TGI [33]: > 100 µM | TGI [35]: 75.3 µM | TGI [36]: > 100 µM | TGI [37]: > 100 µM | TGI [38]: 64.4 µM | TGI [39]: 68.2 µM | TGI [40]: 62.3 µM | TGI [42]: 79.9 µM | TGI [43]: 27 µM | TGI [44]: 53.4 µM | TGI [46]: 36.8 µM | TGI [47]: > 100 µM | TGI [49]: > 100 µM | TGI [50]: 49.8 µM | TGI [51]: > 100 µM | TGI [52]: > 100 µM | TGI [53]: > 100 µM | TGI [54]: > 100 µM

From PubChem BioAssay (NCI)
